PubChem BioAssay (NCI)
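The concentration for 50% growth inhibition is given as GI50. TGI: total growth inhibition.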

How the values were obtained:
Experiment in all cases: growth of human tumour cells (NCI), 384-well format
PC-3 prostate = tested on: PC-3 prostate
SR leukemia = tested on: SR leukemia
OVCAR-5 ovarian = tested on: OVCAR-5 ovarian
RXF 393 renal = tested on: RXF 393 renal
UACC-257 melanoma = tested on: UACC-257 melanoma
SF-295 CNS = tested on: SF-295 CNS
CAKI-1 renal = tested on: CAKI-1 renal
MDA-MB-468 breast = tested on: MDA-MB-468 breast
A498 renal = tested on: A498 renal
DU-145 prostate = tested on: DU-145 prostate
HCT-116 colon = tested on: HCT-116 colon
U251 glioblastoma = tested on: U251 glioblastoma
NCI-H226 lung = tested on: NCI-H226 lung
SK-OV-3 ovarian = tested on: SK-OV-3 ovarian
SF-539 CNS = tested on: SF-539 CNS
NCI-H322M lung = tested on: NCI-H322M lung
SN12C renal = tested on: SN12C renal
HCT-15 colon = tested on: HCT-15 colon
SK-MEL-2 melanoma = tested on: SK-MEL-2 melanoma
MALME-3M melanoma = tested on: MALME-3M melanoma
IGROV1 ovarian = tested on: IGROV1 ovarian
MDA-MB-435 melanoma = tested on: MDA-MB-435 melanoma
MDA-MB-231 breast = tested on: MDA-MB-231 breast
786-0 renal = tested on: 786-0 renal
ACHN renal = tested on: ACHN renal
K-562 leukemia = tested on: K-562 leukemia
A549 NSCLC = tested on: A549 NSCLC
OVCAR-4 ovarian = tested on: OVCAR-4 ovarian
SF-268 CNS = tested on: SF-268 CNS
SW-620 colon = tested on: SW-620 colon
MCF7 breast = tested on: MCF7 breast
SNB-19 CNS = tested on: SNB-19 CNS
M14 melanoma = tested on: M14 melanoma
OVCAR-3 ovarian = tested on: OVCAR-3 ovarian
NCI-H460 NSCLC = tested on: NCI-H460 NSCLC
NCI/ADR-RES ovarian = tested on: NCI/ADR-RES ovarian
BT-549 breast = tested on: BT-549 breast
RPMI-8226 leukemia = tested on: RPMI-8226 leukemia
EKVX NSCLC = tested on: EKVX NSCLC
HOP-92 NSCLC = tested on: HOP-92 NSCLC
MOLT-4 leukemia = tested on: MOLT-4 leukemia
CCRF-CEM leukemia = tested on: CCRF-CEM leukemia
TK-10 renal = tested on: TK-10 renal
COLO 205 colon = tested on: COLO 205 colon
LOX IMVI melanoma = tested on: LOX IMVI melanoma
SK-MEL-28 melanoma = tested on: SK-MEL-28 melanoma
SNB-75 CNS = tested on: SNB-75 CNS
NCI-H23 lung = tested on: NCI-H23 lung
OVCAR-8 ovarian = tested on: OVCAR-8 ovarian
SK-MEL-5 melanoma = tested on: SK-MEL-5 melanoma
UACC-62 melanoma = tested on: UACC-62 melanoma
HS 578T breast = tested on: HS 578T breast
HL-60(TB) leukemia = tested on: HL-60(TB) leukemia
KM12 colon = tested on: KM12 colon
HOP-62 NSCLC = tested on: HOP-62 NSCLC
T-47D breast = tested on: T-47D breast
UO-31 renal = tested on: UO-31 renal
HCC-2998 colon = tested on: HCC-2998 colon
NCI-H522 lung = tested on: NCI-H522 lung

CCN1CCN(Cc2ccc(Nc3ncc(F)c(-c4cc(F)c5nc(C)n(C(C)C)c5c4)n3)nc2)CC1
GI50 (PC-3 prostate): 1.49 µM | TGI (PC-3 prostate): > 31.9 µM | GI50 (SR leukemia): 0.0577 µM | TGI (SR leukemia): 0.267 µM | GI50 (OVCAR-5 ovarian): 0.944 µM | TGI (OVCAR-5 ovarian): > 68.3 µM | GI50 (RXF 393 renal): 5.84 µM | TGI (RXF 393 renal): 11.6 µM | GI50 (UACC-257 melanoma): 4.74 µM | TGI (UACC-257 melanoma): > 32.1 µM | GI50 (SF-295 CNS): 6.95 µM | TGI (SF-295 CNS): > 34.2 µM | GI50 (CAKI-1 renal): 0.285 µM | TGI (CAKI-1 renal): 14 µM | GI50 (MDA-MB-468 breast): 1.18 µM | TGI (MDA-MB-468 breast): > 25.7 µM | GI50 (A498 renal): 0.312 µM | TGI (A498 renal): 1.47 µM | GI50 (DU-145 prostate): 1.84 µM | TGI (DU-145 prostate): 9.15 µM | GI50 (HCT-116 colon): 0.392 µM | TGI (HCT-116 colon): 1.87 µM | GI50 (U251 glioblastoma): 2.87 µM | TGI (U251 glioblastoma): > 29.6 µM | GI50 (NCI-H226 lung): 0.56 µM | TGI (NCI-H226 lung): 23 µM | GI50 (SK-OV-3 ovarian): 3.31 µM | TGI (SK-OV-3 ovarian): > 32 µM | GI50 (SF-539 CNS): 1.26 µM | TGI (SF-539 CNS): 2.53 µM | GI50 (NCI-H322M lung): 1.16 µM | TGI (NCI-H322M lung): 15.2 µM | GI50 (SN12C renal): 6.7 µM | TGI (SN12C renal): > 32.9 µM | GI50 (HCT-15 colon): 0.531 µM | TGI (HCT-15 colon): 7.24 µM | GI50 (SK-MEL-2 melanoma): 16.8 µM | TGI (SK-MEL-2 melanoma): 30.5 µM | GI50 (MALME-3M melanoma): 3.43 µM | TGI (MALME-3M melanoma): 13.6 µM | GI50 (IGROV1 ovarian): 4.43 µM | TGI (IGROV1 ovarian): > 28.1 µM | GI50 (MDA-MB-435 melanoma): > 15.5 µM | TGI (MDA-MB-435 melanoma): > 52.4 µM | GI50 (MDA-MB-231 breast): 0.749 µM | GI50 ([…]-0 renal): 1.27 µM | TGI (786-0 renal): 7.97 µM | GI50 (ACHN renal): 0.39 µM | TGI (ACHN renal): 10.6 µM | GI50 (K-562 leukemia): 1.11 µM | TGI (K-562 leukemia): 2.32 µM | GI50 (A549 NSCLC): 2.12 µM | TGI (A549 NSCLC): 7.52 µM | TGI (OVCAR-4 ovarian): > 19.6 µM | GI50 (SF-268 CNS): 2 µM | TGI (SF-268 CNS): 19 µM | GI50 (SW-620 colon): 0.366 µM | TGI (SW-620 colon): 1.81 µM | GI50 (MCF7 breast): 0.395 µM | TGI (MCF7 breast): 6.59 µM | GI50 (SNB-19 CNS): 16 µM | TGI (SNB-19 CNS): > 33.6 µM | GI50 (M14 melanoma): 0.684 µM | TGI (M14 melanoma): > 28 µM | GI50 (OVCAR-3 ovarian): 4.21 µM | TGI (OVCAR-3 ovarian): > 29.3 µM | GI50 (NCI-H460 NSCLC): 0.387 µM | TGI (NCI-H460 NSCLC): 1.82 µM | GI50 (NCI/ADR-RES ovarian): > 60.9 µM | TGI (NCI/ADR-RES ovarian): > 100 µM | GI50 (BT-549 breast): 0.917 µM | TGI (BT-549 breast): 16.5 µM | GI50 (RPMI-8226 leukemia): 1.42 µM | TGI (RPMI-8226 leukemia): 8.38 µM | GI50 (EKVX NSCLC): 18 µM | TGI (EKVX NSCLC): > 62 µM | GI50 (HOP-92 NSCLC): > 81.8 µM | TGI (HOP-92 NSCLC): > 100 µM | GI50 (MOLT-4 leukemia): 0.127 µM | TGI (MOLT-4 leukemia): 0.981 µM | GI50 (CCRF-CEM leukemia): 0.33 µM | TGI (CCRF-CEM leukemia): 4.39 µM | GI50 (TK-10 renal): 0.803 µM | TGI (TK-10 renal): > 27.6 µM | GI50 (COLO 205 colon): 0.447 µM | TGI (COLO 205 colon): > 55.9 µM | GI50 (LOX IMVI melanoma): 0.372 µM | TGI (LOX IMVI melanoma): 7.23 µM | GI50 (SK-MEL-28 melanoma): 1.85 µM | TGI (SK-MEL-28 melanoma): > 33.3 µM | GI50 (SNB-75 CNS): 0.708 µM | TGI (SNB-75 CNS): 10.6 µM | GI50 (NCI-H23 lung): 1.74 µM | TGI (NCI-H23 lung): 7.68 µM | GI50 (OVCAR-8 ovarian): 24.3 µM | TGI (OVCAR-8 ovarian): > 32.4 µM | GI50 (SK-MEL-5 melanoma): 0.26 µM | TGI (SK-MEL-5 melanoma): > 23.3 µM | GI50 (UACC-62 melanoma): 2.4 µM | TGI (UACC-62 melanoma): > 26.9 µM | GI50 (HS 578T breast): 2.43 µM | TGI (HS 578T breast): 19.4 µM | GI50 (HL-60(TB) leukemia): 0.386 µM | TGI (HL-60(TB) leukemia): 6.82 µM | GI50 (KM12 colon): 0.485 µM | TGI (KM12 colon): 6.5 µM | GI50 (HOP-62 NSCLC): 8.44 µM | TGI (HOP-62 NSCLC): > 56.8 µM | GI50 (T-47D breast): 23.7 µM | TGI (T-47D breast): > 68.5 µM | GI50 (UO-31 renal): 0.362 µM | TGI (UO-31 renal): > 19.1 µM | GI50 (HCC-2998 colon): 4.45 µM | GI50 (NCI-H522 lung): 9.54 µM | TGI (NCI-H522 lung): > 33.1 µM
